The values that follow come from publication PMC7070036, “An amber obligate active site-directed ligand evolution technique for phage display” (Nature Communications, 2020).

Where “and” joins values, the source holds several entries; their conditions need not be identical. Identical values can stand only once. Like-named read-outs stand apart in the source and are kept apart here. A value given as a limit tells only on which side of the number the result lay.

The target in one experiment is T1, SIRT1 (Homo sapiens, UniProt Q96EB6).
T1 sequence (Q96EB6 1-747): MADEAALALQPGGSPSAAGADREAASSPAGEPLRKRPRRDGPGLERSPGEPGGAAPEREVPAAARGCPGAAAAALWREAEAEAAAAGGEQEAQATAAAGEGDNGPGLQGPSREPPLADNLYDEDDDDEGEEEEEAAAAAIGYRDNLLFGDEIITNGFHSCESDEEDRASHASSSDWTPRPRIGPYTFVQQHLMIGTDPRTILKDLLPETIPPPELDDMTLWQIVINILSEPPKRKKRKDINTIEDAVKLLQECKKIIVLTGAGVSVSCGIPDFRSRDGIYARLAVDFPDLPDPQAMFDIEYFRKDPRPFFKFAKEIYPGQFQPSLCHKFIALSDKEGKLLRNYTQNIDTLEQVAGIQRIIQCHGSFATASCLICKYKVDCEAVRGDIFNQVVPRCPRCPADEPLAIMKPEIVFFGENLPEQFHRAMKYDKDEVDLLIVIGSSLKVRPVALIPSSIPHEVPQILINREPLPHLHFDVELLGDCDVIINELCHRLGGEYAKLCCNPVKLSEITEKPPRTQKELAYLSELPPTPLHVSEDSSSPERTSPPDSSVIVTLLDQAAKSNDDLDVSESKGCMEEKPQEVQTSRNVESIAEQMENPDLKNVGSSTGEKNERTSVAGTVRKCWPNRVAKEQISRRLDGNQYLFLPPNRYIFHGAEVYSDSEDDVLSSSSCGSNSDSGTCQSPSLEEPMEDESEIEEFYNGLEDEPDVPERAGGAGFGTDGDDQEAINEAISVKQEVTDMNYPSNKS
Description: Continuous fluorogenic sirtuin inhibition assay, SIRT1. In kind it is biochemical. As for the experimental part:
(§1) The continuous assay for comparing isoform specificity of S2P04 was performed using the universal fluorogenic sirtuin substrate described by Schuster et al.[41]. Briefly, the inhibition reactions were performed in 50-µL volumes at 37 °C in black, half-area, 96-well plates. The sirtuin enzyme (0.25 µM) was preincubated with different concentrations of the peptide S2P04 (0.0064–50 µM for SIRT1 and SIRT2, 0.5–100 µM for SIRT3) or TB (0.16–150 µM for SIRT1–SIRT3), and 1 mM NAD^+ in assay buffer (20 mM Tris, pH 7.8, 150 mM NaCl, 5 mM MgCl2, and 1 mM DTT) for 15 min. Following incubation, the reaction started with the addition of the fluorogenic substrate (5 µM), and product formation was monitored by measuring the fluorescence intensity every 20 s for 5 min (SIRT2) or 30 min (SIRT1 and SIRT3) in a BioTek Synergy H1 microplate reader at λex = 320 nm and λem = 408 nm (gain = 130 and read height = 7 mm). Initial rates of product formation were determined by a linear regression of the plot of fluorescence intensity vs. time and normalized relative to 0% (max inhibitor) and 100% (no inhibitor) controls. The assay was repeated to determine the IC50 values of all BuK peptides for SIRT2. IC50 values were determined by nonlinear regression of the plot of the normalized initial rate vs. inhibitor concentration using GraphPad Prism. The determined IC50 values are provided in Supplementary Table 2, and inhibition curves can be seen in Supplementary Fig. 20.

The target of a further experiment is T2, SIRT3 (Homo sapiens, UniProt Q9NTG7).
T2 sequence (Q9NTG7 1-399): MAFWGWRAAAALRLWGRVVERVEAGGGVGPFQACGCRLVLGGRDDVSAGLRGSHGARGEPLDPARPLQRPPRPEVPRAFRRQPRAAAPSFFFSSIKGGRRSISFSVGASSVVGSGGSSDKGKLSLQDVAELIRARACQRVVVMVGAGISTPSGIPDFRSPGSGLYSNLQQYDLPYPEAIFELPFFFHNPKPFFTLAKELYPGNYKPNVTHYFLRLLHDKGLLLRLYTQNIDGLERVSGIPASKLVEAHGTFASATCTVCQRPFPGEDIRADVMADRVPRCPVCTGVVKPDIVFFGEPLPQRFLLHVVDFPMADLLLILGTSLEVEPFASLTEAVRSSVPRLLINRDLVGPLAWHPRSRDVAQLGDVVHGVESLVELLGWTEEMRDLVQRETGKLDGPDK
Description: Continuous fluorogenic sirtuin inhibition assay, SIRT3. In kind it is biochemical. As for the experimental part: as §1

The target of the next experiment is T3, SIRT2 (Homo sapiens, UniProt Q8IXJ6).
T3 sequence (Q8IXJ6 1-389): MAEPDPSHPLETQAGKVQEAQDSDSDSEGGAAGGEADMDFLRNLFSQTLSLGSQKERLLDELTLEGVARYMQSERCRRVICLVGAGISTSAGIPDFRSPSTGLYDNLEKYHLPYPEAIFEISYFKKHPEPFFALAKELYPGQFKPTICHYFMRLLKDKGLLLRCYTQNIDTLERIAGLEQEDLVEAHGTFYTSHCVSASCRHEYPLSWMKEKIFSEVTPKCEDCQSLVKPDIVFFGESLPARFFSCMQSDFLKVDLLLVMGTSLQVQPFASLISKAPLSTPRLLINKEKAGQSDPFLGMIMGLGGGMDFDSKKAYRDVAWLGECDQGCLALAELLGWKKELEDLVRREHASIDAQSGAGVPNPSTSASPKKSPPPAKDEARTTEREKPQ
Description: Continuous fluorogenic sirtuin inhibition assay, SIRT2 (tBuK peptides, TB). The format is biochemical. How it is done:
as §1

For experiment [1], the system named is amber-obligate phagemid library. In words: Phage yield on expression of the amber-obligate phagemid library with ncAAs (cfu assay). Also noted: species or system E. coli Top10. The settings on record: BuKRS.
For another experiment, the target named is FITC-conjugated S2P03. Description: fluorescence polarisation; SIRT2 serially diluted from 5 uM to 1 nM (24 uL) plus 1 uL of 250 nM FITC-peptide; 50 mM Tris, 137 mM NaCl, 2.7 mM KCl, 1 mM MgCl2, 1 mM DTT, 0.01% Triton X-100, pH 8.0; 37 C for 15-30 min; 384-well plate. On the technique in general: Fluorescence polarisation rises when a labelled molecule tumbles more slowly, as on binding a larger partner.

Where [2] appears, read: mean ± SD of two independent experiments.

Broadly, the IC50 is the concentration that gives 50% inhibition. With `CCCC(=S)NCCCC[C@H](NC(=O)OCc1ccccc1)C(=O)Nc1ccccc1` [TB, reference compound], the remaining activity at 0.5 µM worked out at 98.9% on SIRT1 (inhibitor 0.5 µM, read-out: Normalized Activity, SIRT1); 90.6% at SIRT3 (inhibitor 0.5 µM, read-out: Normalized Activity, SIRT3); 112% on SIRT2 (inhibitor 0.5 µM, read-out: Normalized Activity, SIRT2). Further, the remaining activity at 1 µM at SIRT1 (inhibitor 1 µM, read-out: Normalized Activity, SIRT1) stood at 99%; at SIRT3 (inhibitor 1 µM, read-out: Normalized Activity, SIRT3) it was 91.2%; on SIRT2 (inhibitor 1 µM, read-out: Normalized Activity, SIRT2), 80.3%. The remaining activity at 4 µM on SIRT1 (inhibitor 4 µM, read-out: Normalized Activity, SIRT1) was 75%; on SIRT3 (inhibitor 4 µM, read-out: Normalized Activity, SIRT3) it was 93.9%; at SIRT2 (inhibitor 4 µM, read-out: Normalized Activity, SIRT2), 40.6%. Also, the remaining activity at 10 µM at SIRT1 (inhibitor 10 µM, read-out: Normalized Activity, SIRT1) is 55.9%; on SIRT3 (inhibitor 10 µM, read-out: Normalized Activity, SIRT3), 92.4%; on SIRT2 (inhibitor 10 µM, read-out: Normalized Activity, SIRT2), 6.05%. Also, the remaining activity at 150 µM was 0% at SIRT1 (inhibitor 150 µM, 100 = Activity w/o inhibitor, 0 = Activity of highest inhibitor, read-out: Normalized Activity, SIRT1) and 0% on SIRT2 (inhibitor 150 µM, 100 = Activity w/o inhibitor, 0 = Activity of highest inhibitor, read-out: Normalized Activity, SIRT2). Besides, the IC50 is 9.62 ± 0.09 µM on SIRT1 (setting [2]); greater than 150 µM on SIRT3 (setting [2]); 3.11 ± 0.045 µM on SIRT2 (0.25 µM SIRT2, 1 mM NAD+, 5 µM fluorogenic substrate, 15 min preincubation, n = 2, read-out: IC50); 3.11 ± 0.04 µM at SIRT2 (mean ± SD of two independent experiments, read-out: IC50, SIRT2). Also, the “inhibition of SIRT3” value on SIRT3 (0.16–150 µM) is given as 0 = Activity of highest inhibitor *TB for SIRT3 showed no inhibiton. Besides, the remaining activity at 100 µM on SIRT3 (inhibitor 100 µM, read-out: Normalized Activity, SIRT3) is 79.9%. At SIRT2 (inhibitor 0.5 µM, single trials), the activity at 0.5 µM is 112%. Further, the “%Activity, SIRT2” value at SIRT2 (inhibitor 0.5 µM, single trials, 0.5 µM) was 98.9568%; on SIRT2 (inhibitor 1 µM, single trials, 1 µM), 81.929%; at SIRT2 (inhibitor 4 µM, single trials, 4 µM) it was 42.8707%; on SIRT2 (inhibitor 10 µM, single trials, 10 µM), 11.4809%; at SIRT2 (inhibitor 50 µM, single trials, 50 µM), -6.644% and -4.551%; at SIRT2 (inhibitor 100 µM, (Activity/Activity w/o inhibitor)*100, single trials, 100 µM), -5.573% and -9.821%. The activity at 1 µM at SIRT2 (inhibitor 1 µM, single trials) came out at 80.3%. Further, on SIRT2 (inhibitor 4 µM, single trials), the activity at 4 µM was determined as 40.6%. On SIRT2 (inhibitor 10 µM, single trials), the activity at 10 µM is 6.05%.

For the molecule `CCCC(=O)NCCCC[C@H](N)C(=O)O` [compound 5, N ^Ɛ-butyryl-L-lysine], in experiment [1], the “fold increase in particle yield vs no ncAA” value is given as roughly 100 fold.

`C/C=C/C(=O)NCCCC[C@H](N)C(=O)O` [compound 6, N^Ɛ-crotonyl-L-lysine]: the “fold increase in particle yield vs no ncAA” value in experiment [1] is roughly 100 fold. Besides, in experiment [1] (Fig. 4e, single trials), the “Phage Yields, ncAA” value was 3.00E+09 CFU/mL.

B1: recombinant human SIRT2 (enzyme)
chain: MAEPDPSHPLETQAGKVQEAQDSDSDSEGGAAGGEADMDFLRNLFSQTLSLGSQKERLLDELTLEGVARYMQSERCRRVICLVGAGISTSAGIPDFRSPSTGLYDNLEKYHLPYPEAIFEISYFKKHPEPFFALAKELYPGQFKPTICHYFMRLLKDKGLLLRCYTQNIDTLERIAGLEQEDLVEAHGTFYTSHCVSASCRHEYPLSWMKEKIFSEVTPKCEDCQSLVKPDIVFFGESLPARFFSCMQSDFLKVDLLLVMGTSLQVQPFASLISKAPLSTPRLLINKEKAGQSDPFLGMIMGLGGGMDFDSKKAYRDVAWLGECDQGCLALAELLGWKKELEDLVRREHASIDAQSGAGVPNPSTSASPKKSPPPAKDEARTTEREKPQ
As a reminder, the Kd is the concentration at which binding is half-saturated. As to B1, in the experiment with FITC-conjugated S2P03, the Kd stood at 0.049 µM.
